Assay results published in US20090270490A1, “METHODS INVOLVING ALDOSE REDUCTASE INHIBITION” (THE BOARD OF REGENTS OF THE UNIVERSITY OF TEXAS SYSTEM, priority 2008, published 2009).

Assays:
[1] = system: lens epithelial cells in pig eye capsular bags; assay: Lens epithelial cell growth in pig eye capsular bags (trypan blue cell counting); format: cell-based; details: 7 days culture
Protocol: (§1) Pig eye capsular bags were prepared by phacoemulsification followed by capsulorhexis and incubated in Dulbecco's Modified Eagle's Medium (DMEM) supplemented with 10% FBS and 1% penicillin and streptomycin without or with AR inhibitors, sorbinil (50 μM) and fidarestat (10-30 μM) for 7 days in 5% CO2 condition at 37° C. Medium was replaced with fresh medium without or with AR inhibitors every day. At the end of incubation, capsular bags were examined under the dissection microscope, cut into four pieces and flat mounted on glass slide with cellular side facing up. The pieces of capsular bags were fixed with 4% paraformaldehyde for 3-4 h at 4° C. After fixation, they were washed, transferred to 70% alcohol and stored at 4° C. until used for immunohistochemical analysis.
The pig eye capsular bags were incubated for 7 days as described above. The lens epithelial cells were detached from capsular bags by incubating with 0.25% trypsin-EDTA solution. The trypsinized cells were harvested, washed with PBS and re-suspended in PBS. To determine cell growth, equal volumes of cell suspension and trypan blue were mixed and the cells which excluded trypan blue dye were counted manually by using a hemocytometer.
Phacoemulsification technique for cataract surgery in humans was used to operate enucleated pig eyes. After removing the lens, a capsular tension ring was inserted in the capsular bag. The capsular bag was then cultured in complete growth-medium without or with AR inhibitors. […] After 7 days in culture, the ring was removed and the cells were harvested by trypsinization. The harvested cells were counted using trypan blue exclusion principle.

[2] = system: α-SMA, β-crystallin and ICAM-1 expression; assay: Immunohistochemical analysis of flat-mounted pig eye capsular bags; format: cell-based; details: 7 days of culture; sorbinil 50 μM, fidarestat 30 μM
Protocol: as §1
The capsular bag specimens flat mounted on slides were washed thrice with PBS and incubated with blocking solution containing 2% BSA, 0.1% Triton-X100, 5% normal goat serum for 1 h at room temperature. Subsequently specimens were washed, incubated with antibodies against α-SMA, β-crystallin, PCNA, and ICAM-1 for 1 h at room temperature. The slides were stained with either LSAB-HRP system (Dako, Carpinteria, Calif.) or incubated with respective FITC labeled secondary antibodies. The samples were examined by using Nikon epifluoroscence microscope (EPI-800 microscope) connected to a computer with Metamorph software.

[3] = system: NF-κB DNA binding; assay: Electrophoretic mobility shift assay (EMSA) of NF-κB in HLEC; format: cell-based, human; details: inhibitor 20 μM, no b-FGF
Protocol: Adenovirus SV-40 viral DNA-transformed human lens epithelial cells (HLE-B3; HLEC) were purchased from ATCC. Cells were maintained in DMEM supplemented with 20% heat-inactivated FBS, and 50 μg/ml gentamicin. The cells were grown in a humidified incubator at 37° C. and 5% CO2. The HLEC were pretreated with 20 μM of AR inhibitors sorbinil or zopolrestat for overnight in medium containing 0.5% FBS followed by stimulation with various concentrations (0-100 ng/mL) of b-FGF for 24 h and cell viability and expression of α-SMA, β-crystallin and ICAM-1 was quantified. To investigate the effect of b-FGF on NF-κB and MAPK activation, HLEC were starved in medium containing 0.5% FBS with or without AR inhibitors for overnight. The cells were washed with serum-free medium followed by incubation in serum-free medium without or with AR inhibitor containing 50 ng/mL b-FGF for different time intervals.
The HLEC in 150 cm^2 culture flasks were pretreated without or with AR inhibitors for 24 h in serum-free medium, followed by treatment with b-FGF (50 ng/ml) for 1 h at 37° C. The nuclear extracts were prepared as described earlier (Ramana et al., 2003). The Consensus oligonucleotides for NF-κB transcription factors were 5′-end labeled using T4 polynucleotide kinase. EMSA was performed as described earlier (Ramana et al., 2003.). […]

basal activity of NF-κB with inhibitor alone [3] | Compound | most effective dose at which LEC growth was significantly (p<0.001) inhibited ([1]; doses 10-30 μM tested) [µM] | inhibiting the growth of LEC in pig eye capsular bags ([1]; fidarestat 10-30 μM) | inhibition at 50 µM ([1]; Sus scrofa, Epithelial cell, 168 h, sorbinil 50 μM, pig eye capsular bags, vs control) [%] | expression of α-SMA and β-crystallin in capsular bags (immunohistochemistry) [2]
 | NC(=O)[C@@H]1C[C@]2(NC(=O)NC2=O)c2cc(F)ccc2O1 [fidarestat, (2S,4S)-2-aminoformyl-6-fluoro-spiro[chroman-4,4′-imidazolidine]-2′,5′-dione] | 30 | dose-dependent response |  | 
did not affect | O=C1NC(=O)[C@@]2(CCOc3ccc(F)cc32)N1 [sorbinil, (S)-6-fluoro-2,3-dihydrospiro[4H-1-benzopyran-4,4′-imidazolidine]-2′,5′-dione] |  |  | ~74 | only few cells expressed α-SMA and β-crystallin
did not affect | O=C(O)Cc1nn(Cc2nc3cc(C(F)(F)F)ccc3s2)c(=O)c2ccccc12 [zopolrestat] |  |  |  | 
